For 5 compounds, mass density and viscosity results are on record in the NIST ThermoML archive (doi:10.1021/acs.jced.6b00399).

A short description of data set [1]: xn = mol fraction of the nth substance listed. To be noted: 101.3 kPa, Liquid, x1 = 0.66; for mass density: Pycnometric method.
The conditions of data set [2]: Liquid; for mass density: 101.3 kPa, Pycnometric method; for viscosity: 298.15 K, 101.33 kPa, Capillary tube (Ostwald / Ubbelohde) method.

The structures appear in SMILES notation. Where a name gives a salt, the structure may show the parent alone. Numbers after ± are expanded uncertainties.

Usually mass density stands for mass per unit of volume. What is called viscosity is the internal friction of a fluid under shear. As to `OC1COCOC1` [1,3-dioxan-5-ol] + OCC1COCO1, the mass density in data set [1] (293.15 K) is on record as 1215.1 ± 2.8 kg/m3; in data set [1] (303.15 K), 1206.7 ± 2.8 kg/m3; in data set [1] (313.15 K) it was 1198.2 ± 2.8 kg/m3; in data set [1] (323.15 K) it was 1189.7 ± 2.8 kg/m3. In data set [1] (298.15 K, Capillary tube (Ostwald / Ubbelohde) method), the viscosity was 20.05 ± 0.84 mPa·s.
On to `CC1(C)OCC(CO)O1` (stereo not given) [2,2-dimethyl-1,3-dioxolane-4-methanol], for which the mass density in data set [2] (293.15 K) came out at 1067.8 ± 2.4 kg/m3; in data set [2] (303.15 K), 1058.9 ± 2.4 kg/m3; in data set [2] (313.15 K), 1049.9 ± 2.4 kg/m3; in data set [2] (323.15 K), 1040.8 ± 2.4 kg/m3. For the same compound, the viscosity in data set [2] is 10.06 ± 0.15 mPa·s.
Regarding `CC(=O)OCC(COC(C)=O)OC(C)=O` [glyceryl triethanoate], the mass density in data set [2] (293.15 K) is recorded as 1158.3 ± 2.5 kg/m3; in data set [2] (303.15 K) it was 1147.3 ± 2.4 kg/m3; in data set [2] (313.15 K), 1136.6 ± 2.4 kg/m3; in data set [2] (323.15 K) it was 1125.7 ± 2.4 kg/m3. The viscosity in data set [2] is given as 16.36 ± 0.68 mPa·s.
Regarding `CCOC(=O)CC(CC(=O)OCC)(OC(C)=O)C(=O)OCC` [triethyl acetyl citrate], the mass density turned out to be 1142.1 ± 3.4 kg/m3 in data set [2] (293.15 K), 1134.1 ± 3.3 kg/m3 in data set [2] (303.15 K), 1124.2 ± 3.3 kg/m3 in data set [2] (313.15 K) and 1112.9 ± 3.3 kg/m3 in data set [2] (323.15 K). Besides, the viscosity in data set [2] was 46.55 ± 1.2 mPa·s.
For `CCOC(=O)CC(O)(CC(=O)OCC)C(=O)OCC` [triethyl citrate], in that order: 1137.1 ± 2.6 kg/m3, 1131.3 ± 2.6 kg/m3, 1122.4 ± 2.6 kg/m3, 1114 ± 2.5 kg/m3 and 32.1 ± 0.64 mPa·s.
